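Dose response: 5 concentrations. Exposure: 48 h. Format: 96-well plates. Endpoint: linear interpolation; highest concentration if not reached. GI50 marks 50% less growth.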 Activity calls are given as the source filed them. No stated cut-off is given here; in the data, active = GI50 up to about 1.1 µM and inactive = higher.
Experiments:
Experiment in all cases: NCI-60 cell line screen, 48 h
[1] = system: KM-20L2
[2] = system: LXFL 529
[3] = system: M19-MEL
[4] = system: HOP-92
[5] = system: RPMI-8226
[6] = system: DLD-1
[7] = system: DMS-273
[8] = system: NCI-H23
[9] = system: DMS-114
[10] = system: SNB-75
[11] = system: PC-3
[12] = system: MDA-N
[13] = system: SK-MEL-5
[14] = system: T47D
[15] = system: MCF7
[16] = system: Hs-578T
[17] = system: MDA-MB-231
[18] = system: NCI/ADR-RES
[19] = system: DU-145
[20] = system: SF-539

Measured: GI50

O=C(O)C12CC3CC(C1)C2C=C3P(=O)(O)O (stereo not drawn)
inactive: [1] > 100 µM | [2] > 100 µM | [3] > 100 µM | [4] > 100 µM | [5] > 100 µM | [6] > 100 µM | [7] > 100 µM | [8] > 100 µM | [9] > 100 µM | [10] > 100 µM

CCP(=S)(CC)CCl
inactive: [11] > 100 µM | [12] > 100 µM | [13] > 100 µM | [14] > 100 µM | [15] > 100 µM | [4] 73.5 µM | [5] > 100 µM | [16] > 100 µM | [17] > 100 µM | [18] > 100 µM | [19] > 100 µM | [8] > 100 µM | [10] > 100 µM

CCOC(=O)C1=NN(c2ccccc2)C2=CC(C)=NN(C)C(=S)N21
inactive: [11] > 100 µM | [12] > 100 µM | [20] > 100 µM | [13] > 100 µM | [14] > 100 µM | [15] > 100 µM | [4] > 100 µM | [5] > 100 µM | [16] > 100 µM | [17] > 100 µM | [18] > 100 µM | [19] > 100 µM | [8] > 100 µM | [10] > 100 µM

Cc1cc(O)nc(NN2C(Cl)C(=O)C2c2c(O)ccc3ccccc23)n1 (stereo not drawn)
inactive: [20] 21.9 µM | [13] 15.2 µM | [1] 22.6 µM | [2] 15.2 µM | [3] 39.6 µM | [4] 16.4 µM | [5] 15.5 µM | [7] 16.4 µM | [8] 16.4 µM | [9] 19.8 µM | [10] 8.75 µM
